Biological target: T1, BTK (Homo sapiens, UniProt Q06187)
T1 construct: endogenous in cells; host or cells: TMD8 cells
Experiment: Cellular BTK HTRF assay (BTK degradation) in TMD8 cells
Assay type: cell-based
Settings: four hours incubation, Total-BTK HTRF relative to DMSO-treated cells
Method: Example 66: BTK Degradation Assay
TMD8 cells were obtained from Tokyo Medical and Dental University and were grown in alpha-MEM (Fisher 12571063) supplemented with 10% heat-inactivated FBS (Corning Premium Fetal Bovine Serum from Fisher, MT35015CV).
Compounds of the present invention were added to 50,000 TMD8 cells in round-bottom 96 well plates with a final DMSO concentration of […] and were incubated at 37° C. 5% CO2 for four hours. BTK levels were determined using Cisbio Total-BTK HTRF ([…] Time-Resolved Fluorescence) kit (63ADK064PEG) according to manufacturer's protocol. Briefly, cells were incubated in 1× supplied lysis buffer for 30 minutes. In an opaque white low volume 96 well plate (Cisbio, 66PL96005), cell lysate was combined with two different specific BTK antibodies, one conjugated with Eu^3+-Cryptate FRET donor and one conjugated with d2 FRET acceptor. Assay controls include wells containing cell lysate with only the Eu^3+-Cryptate FRET donor antibody and wells containing both HTRF antibodies and lysis buffer without cells or control lysate provided by Cisbio. HTRF ratio was calculated as (acceptor signal at 665 nm/donor signal at 620 nm)×10^4. Background HTRF levels were determined from the control well containing the donor, but no acceptor, antibody. Background HTRF levels were subtracted from all samples. Readouts were reported as HTRF levels relative to HTRF levels of DMSO-treated cells. Four-parameter non-linear regressions were performed in GraphPad Prism 7.02 to obtain DC50 values. DC50 values are provided in Table 3, wherein A<5.0 nM, 5.0 nM≤B≤15 nM, and 15 nM<C.

T1 sequence (Q06187 whole entry): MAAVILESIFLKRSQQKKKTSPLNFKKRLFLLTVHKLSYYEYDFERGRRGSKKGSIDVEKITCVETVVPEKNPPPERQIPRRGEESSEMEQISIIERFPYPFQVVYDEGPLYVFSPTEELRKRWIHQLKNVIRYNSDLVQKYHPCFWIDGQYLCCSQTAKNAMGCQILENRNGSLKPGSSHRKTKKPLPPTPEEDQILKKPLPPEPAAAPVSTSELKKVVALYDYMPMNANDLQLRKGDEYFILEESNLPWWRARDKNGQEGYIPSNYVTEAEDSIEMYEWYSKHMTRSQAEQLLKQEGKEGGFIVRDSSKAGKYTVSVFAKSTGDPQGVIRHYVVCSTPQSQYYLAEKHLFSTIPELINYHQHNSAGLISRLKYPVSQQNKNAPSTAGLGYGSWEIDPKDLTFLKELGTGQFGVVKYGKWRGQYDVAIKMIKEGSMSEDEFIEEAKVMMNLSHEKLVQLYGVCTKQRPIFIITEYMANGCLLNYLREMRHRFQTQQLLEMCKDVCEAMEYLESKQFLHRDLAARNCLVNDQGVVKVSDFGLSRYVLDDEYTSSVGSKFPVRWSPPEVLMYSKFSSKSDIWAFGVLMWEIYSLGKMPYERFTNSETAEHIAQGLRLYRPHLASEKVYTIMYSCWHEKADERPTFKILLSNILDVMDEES

Compound	DC50
CN1CCN([C@@H]2CCCN(c3cnc(C(N)=O)c(Nc4ccc(N5CCC6(CC5)CCN(c5ccc7c(c5)C(=O)N(C5CCC(=O)NC5=O)C7=O)CC6)cc4)n3)C2)C1=O (stereo partly drawn) [Compound 55]	< 5 nM
CN1CCN([C@@H]2CCCN(c3cnc(C(N)=O)c(Nc4ccc(N5CCC6(CCN(CCCCc7cccc8c7CN(C7CCC(=O)NC7=O)C8=O)CC6)CC5)cc4)n3)C2)C1=O (stereo partly drawn) [Compound 56]	< 5 nM
CN1CCN([C@@H]2CCCN(c3cnc(C(N)=O)c(Nc4ccc(N5CCC6(CCN(C(=O)CCOCCCc7cccc8c7CN(C7CCC(=O)NC7=O)C8=O)CC6)CC5)cc4)n3)C2)C1=O (stereo partly drawn) [Compound 57, 3-((4-(9-(3-(3-(2-(2,6-dioxopiperidin-3-yl)-1-oxoisoindolin-4-yl)propoxy)propanoyl)-3,9-diazaspiro[5.5]undecan-3-yl)phenyl)amino)-5-((R)-3-(3-methyl-2-oxoimidazolidin-1-yl)piperidin-1-yl)pyrazine-2-carboxamide]	< 5 nM
CN1CCN([C@@H]2CCCN(c3cnc(C(N)=O)c(Nc4ccc(C5(C)CCN(c6ccc7c(c6)C(=O)N(C6CCC(=O)NC6=O)C7=O)CC5)cc4)n3)C2)C1=O (stereo partly drawn) [Compound 58]	5 to 15 nM
CN1CCN([C@@H]2CCCN(c3cnc(C(N)=O)c(Nc4ccc(N5CCN(C[C@@H]6CCN(c7ccc8c(c7)C(=O)N(C7CCC(=O)NC7=O)C8=O)C6)CC5)cc4)n3)C2)C1=O (stereo partly drawn) [Compound 59]	< 5 nM
CN1CCN([C@@H]2CCCN(c3cnc(C(N)=O)c(Nc4ccc(N5CCN(CC6CN(c7ccc8c(c7)C(=O)N(C7CCC(=O)NC7=O)C8=O)C6)CC5)cc4)n3)C2)C1=O (stereo partly drawn) [Compound 60]	< 5 nM
CN1CCN([C@@H]2CCCN(c3cnc(C(N)=O)c(Nc4cccc(NC(=O)CCCN5CCN(c6ccc7c(c6)C(=O)N(C6CCC(=O)NC6=O)C7=O)CC5)c4)n3)C2)C1=O (stereo partly drawn) [Compound 62]	> 15 nM
CN1CCN([C@@H]2CCCN(c3cnc(C(N)=O)c(Nc4cccc(NC(=O)[C@H]5C[C@@H](OCCCc6cccc7c6C(=O)N(C6CCC(=O)NC6=O)C7=O)C5)c4)n3)C2)C1=O (stereo partly drawn) [Compound 63]	> 15 nM
CN1CCN([C@@H]2CCCN(c3cnc(C(N)=O)c(Nc4ccc(CCCNc5ccc6c(c5)C(=O)N(C5CCC(=O)NC5=O)C6=O)cc4)n3)C2)C1=O (stereo partly drawn) [Compound 65]	> 15 nM
CN1CCN([C@@H]2CCCN(c3cnc(C(N)=O)c(Nc4ccc(C5(C)CCN(C6CC(Nc7cccc8c7C(=O)N(C7CCC(=O)NC7=O)C8=O)C6)CC5)cc4)n3)C2)C1=O (stereo partly drawn) [Compound 66]	< 5 nM
NC(=O)c1ncc(N2CCCCC2)nc1Nc1ccc(N2CCN(C(=O)CCOCCCc3cccc4c3CN(C3CCC(=O)NC3=O)C4=O)CC2)cc1 (stereo not drawn) [Compound 67]	> 15 nM
CN1CCN([C@@H]2CCCN(c3cnc(C(N)=O)c(Nc4ccc(C5CN(CC6CCN(c7ccc8c(=O)n(C9CCC(=O)NC9=O)ccc8c7)CC6)C5)cc4)n3)C2)C1=O (stereo partly drawn) [Compound 69]	< 5 nM
CN1CCN([C@@H]2CCCN(c3cnc(C(N)=O)c(Nc4ccc(N5CC6CN(Cc7ccc8c(c7)C(=O)N(C7CCC(=O)NC7=O)C8=O)CC6C5)cc4)n3)C2)C1=O (stereo partly drawn) [Compound 76]	5 to 15 nM
CN1CCN([C@H]2CCCN(c3cnc(C(N)=O)c(Nc4cnn(C5CCN(C6CCN(c7ccc8c(c7)C(=O)N(C7CCC(=O)NC7=O)C8=O)CC6)CC5)c4)n3)C2)C1=O (stereo partly drawn) [Compound 77]	< 5 nM
CN1CCN([C@H]2CCCN(c3cnc(C(N)=O)c(Nc4ccc(N5CC6CN(c7ccc8c(c7)C(=O)N(C7CCC(=O)NC7=O)C8=O)CC6C5)cc4)n3)C2)C1=O (stereo partly drawn) [Compound 79]	> 15 nM
CN1CCN([C@H]2CCCN(c3cnc(C(N)=O)c(Nc4ccc(N5CCC6(CCN(c7ccc8c(c7)C(=O)N(C7CCC(=O)NC7=O)C8=O)CC6)CC5)nc4)n3)C2)C1=O (stereo partly drawn) [Compound 80]	< 5 nM
CN1CCN([C@H]2CCCN(c3cnc(C(N)=O)c(Nc4ccc(N5CCC6(CC5)CCN(c5ccc7c(c5)C(=O)N(C5CCC(=O)NC5=O)C7=O)CC6)cn4)n3)C2)C1=O (stereo partly drawn) [Compound 81]	> 15 nM

Compound	DC50
CN1CCN([C@@H]2CCCN(c3cnc(C(N)=O)c(Nc4ccc(N5CCN(CC6CN(c7ccc8c(c7)C(=O)N(C7CCC(=O)NC7=O)C8=O)C6)CC5)cc4)n3)C2)C1=O (stereo partly drawn) [Compound 82]	< 5 nM
CN1CCN([C@H]2CCCN(c3cnc(C(N)=O)c(Nc4cnn(C5CCN(CC6CCN(c7ccc8c(c7)C(=O)N(C7CCC(=O)NC7=O)C8=O)CC6)CC5)c4)n3)C2)C1=O (stereo partly drawn) [Compound 83]	< 5 nM
CN1CCN([C@H]2CCCN(c3cnc(C(N)=O)c(Nc4cnn(C5CCN(CCCc6cccc7c6CN(C6CCC(=O)NC6=O)C7=O)CC5)c4)n3)C2)C1=O (stereo partly drawn) [Compound 84]	> 15 nM
CN1CCN([C@@H]2CCCN(c3cnc(C(N)=O)c(Nc4ccc(C5CN(CC6CN(c7ccc8c(c7)C(=O)N(C7CCC(=O)NC7=O)C8=O)C6)C5)cc4)n3)C2)C1=O (stereo partly drawn) [Compound 85]	< 5 nM
CN1CCN([C@@H]2CCCN(c3cnc(C(N)=O)c(Nc4ccc(C5CCN(C6CN(Cc7ccc8c(c7)CN(C7CCC(=O)NC7=O)C8=O)C6)CC5)cc4)n3)C2)C1=O (stereo partly drawn) [Compound 86]	< 5 nM
CN1CCN([C@H]2CCCN(c3cnc(C(N)=O)c(Nc4ccc(C5CCN(C[C@H]6CCCN6c6ccc7c(c6)C(=O)N(C6CCC(=O)NC6=O)C7=O)CC5)cc4)n3)C2)C1=O (stereo partly drawn) [Compound 87]	< 5 nM
CN1CCN([C@H]2CCCN(c3cnc(C(N)=O)c(Nc4ccc(N5CCN(CCCCc6cccc7c6CN(C6CCC(=O)NC6=O)C7=O)CC5)cn4)n3)C2)C1=O (stereo partly drawn) [Compound 88]	> 15 nM
CN1CCN([C@@H]2CCCN(c3cnc(C(N)=O)c(Nc4ccc(N5CCN(C[C@H]6CCN(c7ccc8c(c7)C(=O)N(C7CCC(=O)NC7=O)C8=O)C6)CC5)cn4)n3)C2)C1=O (stereo partly drawn) [Compound 89]	5 to 15 nM
CN1CCN([C@H]2CCCN(c3cnc(C(N)=O)c(Nc4ccc(C(=O)N5CCN(Cc6ccc7c(c6)C(=O)N(C6CCC(=O)NC6=O)C7=O)CC5)cc4)n3)C2)C1=O (stereo partly drawn) [Compound 90]	5 to 15 nM
CN1CCN([C@@H]2CCCN(c3cnc(C(N)=O)c(Nc4ccc(N5CC6CN(CC7CN(c8ccc9c(c8)C(=O)N(C8CCC(=O)NC8=O)C9=O)C7)CC6C5)cc4)n3)C2)C1=O (stereo partly drawn) [Compound 91]	< 5 nM
CN1CCN([C@@H]2CCCN(c3cnc(C(N)=O)c(Nc4ccc(N5CCC6(CC5)CN(Cc5ccc7c(c5)C(=O)N(C5CCC(=O)NC5=O)C7=O)C6)cc4)n3)C2)C1=O (stereo partly drawn) [Compound 93]	< 5 nM
CN1CCN([C@H]2CCCN(c3cnc(C(N)=O)c(Nc4ccc(N5CCCC6(CN(Cc7ccc8c(c7)C(=O)N(C7CCC(=O)NC7=O)C8=O)C6)C5)cc4)n3)C2)C1=O (stereo partly drawn) [Compound 94]	< 5 nM
CN1CCN([C@@H]2CCCN(c3cnc(C(N)=O)c(Nc4ccc(N5CC[C@@H]6CCN(Cc7ccc8c(c7)C(=O)N(N7CCC(=O)NC7=O)C8=O)C[C@@H]6C5)cc4)n3)C2)C1=O [Compound 95]	5 to 15 nM
CN1CCN([C@@H]2CCCN(c3cnc(C(N)=O)c(Nc4ccc(N5CCCC6(C5)CN(c5cccc7c5C(=O)N(C5CCC(=O)NC5=O)C7=O)C6)cc4)n3)C2)C1=O (stereo partly drawn) [Compound 96]	> 15 nM
CN1CCN([C@H]2CCCN(c3cnc(C(N)=O)c(Nc4ccc(N5CCC6(CC5)CN(c5cccc7c5C(=O)N(C5CCC(=O)NC5=O)C7=O)C6)cc4)n3)C2)C1=O (stereo partly drawn) [Compound 97]	> 15 nM
CN1CCN([C@H]2CCCN(c3cnc(C(N)=O)c(Nc4ccc(N5CCN(CC#Cc6ccc7c(c6)C(=O)N(C6CCC(=O)NC6=O)C7)CC5)cc4)n3)C2)C1=O (stereo partly drawn) [Compound 98]	< 5 nM

Reference: patent publication US11479556B1, “Bifunctional compounds for degrading BTK via ubiquitin proteosome pathway” (NURIX THERAPEUTICS, INC., priority 2018, dated 2022)
